Assay results published in US20210290644A1, “COMPOUNDS AND METHODS FOR TREATING FUNGAL INFECTIONS” (Amplyx Pharmaceuticals, Inc., priority 2018, published 2021).
“And” between values parts separate entries of the source, which are not always exact repeats. Equal entries are not always repeated. “Also recorded” adds a separate entry of the source. Where two headings read alike, the source gives them in different places.

Tests used:
[1] = Study #2 Phase 1: pharmacokinetics after single IV and single/multiple oral doses of Compound 1, absolute oral bioavailability; details: for half-life / Tmax: human, plasma, po; for Tmax: median tmax;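 as to all read-outs here: phase 1 study design: one IV dose, then escalating single oral doses, fed versus fasted single oral dosing, and once-daily oral dosing over 14 days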
Excerpt: (§1) In the single ascending dose (SAD) phase, subjects in Cohort 1a received a single IV dose in Period A and then rising single oral doses in Periods B to D. Subjects in Cohort 1b received a single oral dose under fed and fasted conditions in Periods E and F. Subjects in Cohorts 2 and 3 received once-daily oral doses for 14 days, as did subjects in Cohort 4 as part of an in vivo screen for drug-drug interaction (DDI) potential.
(§2) For SAD Cohorts 1a and 1b, urine samples for the determination of Compound 1A were collected through 48 hrs after dosing.
(§3) Forty-six (46) subjects were enrolled into the study, 8 in Cohort 1a, 10 in Cohort 1b, and 8 each in Cohorts 2 and 3.

[2] = Study #2 Phase 1: effect of food (fed vs fasted) on pharmacokinetics of Compound 1A after 400 mg oral Compound 1; details: for F: 400 mg oral, ratio of geometric mean AUC(inf) to IV treatment after correction for dose;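 as to all read-outs here: cohort 1b subjects took one oral dose in both fed and fasted states, across two separate periods (E, F) within the single ascending dose phase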
Excerpt: (§4) Study #2 of Compound 1 was a Phase 1, double-blind, placebo-controlled, randomized study in healthy volunteers that consisted of a series of single and multiple dose treatments. In the single ascending dose (SAD) phase, subjects in Cohort 1a received a single IV dose in Period A and then rising single oral doses in Periods B to D. Subjects in Cohort 1b received a single oral dose under fed and fasted conditions in Periods E and F. Subjects in Cohorts 2 and 3 received once-daily oral doses for 14 days, as did subjects in Cohort 4 as part of an in vivo screen for drug-drug interaction (DDI) potential.
(§5) Blood samples for the determination of Compound 1 and Compound 1A plasma concentrations were collected before and at appropriate times during all single and multiple dose administrations of Compound 1. For SAD Cohorts 1a and 1b, urine samples for the determination of Compound 1A were collected through 48 hrs after dosing.

[3] = clinical; details: both, human, iv; for clearance / half-life: in vivo
Excerpt: (§6) This was a Phase 1, first-in-human, randomized, double-blind, placebo-controlled single ascending dose (SAD) and multiple ascending dose (MAD) escalation study of 120 healthy male and female subjects. The objectives of the study were to evaluate the safety, tolerability, and pharmacokinetics of single and multiple doses of Compound 1 administered by intravenous (IV) infusion.
(§7) In the single ascending dose (SAD) phase, Cohorts 1 to 6 and 11A to 11D received single doses. For Cohorts 11A to 11D, the infusion time varied from 0.5 to 3 hours to evaluate the relationship between C., and tolerability. In the multiple ascending dose (MAD) phase, Cohorts 7 to 10 received multiple doses over 14 days, and Cohort 12 examined the feasibility of a loading dose regimen.
(§8) Blood samples for the determination of Compound 1 and Compound 1A plasma concentrations were collected before and at appropriate times during all single- and multiple-dose administrations of Compound 1. For SAD Cohorts 1 to 6, urine samples for the determination of Compound 1A were collected through 48 hrs after dosing.
(§9) Eighty (80) subjects were enrolled into SAD Cohorts 1 to 6 and 11A to 11D. Within each cohort, six subjects were randomized to Compound 1 and two subjects to placebo. All 60 subjects randomized to Compound 1 completed dosing. Fifty-nine (59) subjects completed the study.
(§10) Forty (40) subjects were enrolled into MAD Cohorts 7 to 10 and Loading Dose Cohort 12. Within each cohort, six subjects were randomized to Compound 1 and two subjects to placebo.
(§11) The PK analysis population therefore consisted of 60 subjects in the SAD phase and 28 subjects in the MAD phase.

[4] = clinical; details: human, plasma, po
Excerpt: as §1, §2, §3

[5] = human, in vivo
Excerpt: as §6, §7, §8, §9, §10, §11

[6] = clinical; details: human, plasma, po, 400 mg
Excerpt: as §4, §5

[7] = oral Compound 1 QD × 14 days, 3 cohorts
[8] = single oral doses of Compound 1 100 mg to 500 mg, fasted
[9] = Cohort 1B, 400 mg oral Compound 1, fed vs fasted

Nc1ncccc1-c1cc(Cc2ccc(COc3ccccn3)cc2)no1 [Compound 1A]
half-life ([1]; 500 mg, T½, Day 14, Cohort 4, 500 mg Oral Solution QD × 14 Days, fed, geometric mean): 55.4 h | half-life ([1]; 500 mg, t½, 500 mg Oral Compound 1, fasted, geometric mean): 44.9 h | half-life ([1]; geometric mean t1/2, range across treatments, 4 oral treatments of Compound 1): 44.9 to 64.7 h | Tmax ([1]; range across doses and study days, oral Compound 1 500 mg and 1000 mg QD × 14 days, fed): 2 to 3 h | Tmax ([1]; range across doses, 4 single oral doses of Compound 1): 2 to 3 h | median accumulation, ratio of AUC0-24 on Day 14 to Day 1 [1, 7]: 2.95 | median accumulation, ratio of Cmax on Day 14 to Day 1 [1, 7]: 1.99 | increase in geometric mean Cmax and AUC0-24 from 500 mg to 1000 mg ([1]; oral QD × 14 days, Days 1, 7, and 14): ~2 fold | slope of log-log AUC(inf) vs. dose (power model parameter b) [1, 8]: 1.04±0.046 | slope of log-log Cmax vs. dose (power model parameter b) [1, 8]: 0.935±0.077 | effect of high fat/high calorie meal on bioavailability/exposure ([2]; 400 mg oral Compound 1): no significant effect; also recorded: no impact of food | least squares geometric mean ratios (LSGMR) fed/fasted for Cmax and both AUCs ([2]; 400 mg oral Compound 1, high fat/high calorie meal): ~106% | Geometric Mean Ratio, AUC(0-t) [2, 9]: 106.00% | Geometric Mean Ratio, AUC(inf) [2, 9]: 106.15% | Geometric Mean Ratio, Cmax [2, 9]: 106.29% | F ([2]; Cohort 1B, Fasted): 101.2% | F ([2]; Cohort 1B, Fed): 107.4% | AUC(0-t) ([2]; human, plasma, po, 400 mg, AUC(0-24), Cohort 1B, 400 mg oral Compound 1, Fed, geometric mean): 43.6 µg·h/mL | AUC(0-t) ([2]; human, plasma, po, 400 mg, AUC(0-t), Cohort 1B, 400 mg oral Compound 1, Fed, geometric mean): 180 µg·h/mL | AUC(0-inf) ([2]; human, plasma, po, 400 mg, AUC(inf), Cohort 1B, 400 mg oral Compound 1, Fed, geometric mean): 188 µg·h/mL | CL/F ([2]; human, plasma, po, 400 mg, CL/F, Cohort 1B, 400 mg oral Compound 1, Fed, geometric mean): 0.395 mL/min/kg | Cmax ([2]; human, plasma, po, 400 mg, Cmax, Cohort 1B, 400 mg oral Compound 1, Fed, geometric mean): 4520 ng/mL | Tmax ([2]; human, plasma, po, 400 mg, Tmax, Cohort 1B, 400 mg oral Compound 1, Fasted, median): 2.5 h | Tmax ([2]; human, plasma, po, 400 mg, Tmax, Cohort 1B, 400 mg oral Compound 1, Fed, median): 3.75 h | Vd/F ([2]; human, plasma, po, 400 mg, Vz/F, Cohort 1B, 400 mg oral Compound 1, Fed, geometric mean): 159 L and 2.3 L/kg | Tmax ([2]; human, plasma, po, 400 mg, median tmax, 400 mg oral Compound 1, fasted conditions): 2.5 h | Tmax ([2]; human, plasma, po, 400 mg, median tmax, 400 mg oral Compound 1, fed conditions): 3.75 h | half-life ([2]; human, plasma, po, 400 mg, t½, Cohort 1B, 400 mg oral Compound 1, Fed, geometric mean): 67.5 h | clearance [3]: 25.7 mL/min and 0.348 mL/min/kg | half-life [3]: 74.9 h | clearance ([3]; CL): 31.5 mL/min and 0.45 mL/min/kg | half-life ([3]; geometric mean T1/2, range across treatments): 39.2 to 74.9 h | half-life ([3]; geometric mean t1/2, range across cohorts): 48 to 69 h | half-life ([3]; t½): 39.2 h | AUC(0-t) ([3]; plasma, 150 mg): 51.9 µg·h/mL | Cmax ([3]; plasma, 150 mg): 3420 ng/mL | Vd ([3]; plasma, 150 mg): 174 L and 2.17 L/kg | AUC(0-inf) ([3]; plasma, 350 mg): 173 µg·h/mL | Cmax ([3]; plasma, 350 mg): 4330 ng/mL | Vd ([3]; plasma, 350 mg): 167 L and 2.26 L/kg | AUC(0-inf) ([4]; 100 mg): 39.6 µg·h/mL | CL/F ([4]; 100 mg): 0.417 mL/min/kg | Cmax ([4]; 100 mg): 1300 ng/mL | Vd/F ([4]; 100 mg): 138 L and 1.78 L/kg | half-life ([4]; 100 mg): 49.5 h | AUC(0-inf) ([4]; 400 mg): 177 µg·h/mL | CL/F ([4]; 400 mg): 0.418 mL/min/kg | Cmax ([4]; 400 mg): 4250 ng/mL | Vd/F ([4]; 400 mg): 161 L and 2.35 L/kg | half-life ([4]; 400 mg): 64.7 h | slope of log-log AUC0-24 vs. dose (power model parameter b) ([5]; both): 1.015±0.043 | slope of log-log steady-state Cmax vs. dose (power model parameter b) ([5]; both): 1.039±0.031 | CL ([5]; both, iv): 0.387 mL/min/kg | median accumulation, ratio of AUC0-24 on Day 14 to Day 1 ([5]; both, iv): 3.27 | median accumulation, ratio of Cmax on Day 14 to Day 1 ([5]; both, iv): 1.96 | slope of log-log AUC(inf) versus dose (power model parameter b) ([5]; both, iv): 1.01±0.020 | slope of log-log Cmax versus dose (power model parameter b) ([5]; both, iv): 0.929±0.021 | time at which steady-state is reached ([5]; both, iv): between Day 7 and Day 14 | target plasma exposures (AUC0-24) for clinical efficacy against Candida spp., Aspergillus spp., rare molds ([5]; iv): exceeded | AUC(0-inf) [6]: 177 µg·h/mL | CL/F [6]: 0.418 mL/min/kg | Cmax [6]: 4250 ng/mL | Vd/F [6]: 161 L and 2.35 L/kg | half-life [6]: 64.7 h
